Assay results published in patent publication US11072592B2, “Small molecules that enable cartilage rejuvenation” (The Regents of the University of California, priority 2015, dated 2021).

Assays:
[1] = system: BMPR1B+ chondrocytes; experiment: Retention of BMPR1B+ chondrocytes in culture (flow cytometry); format: cell-based, pig
Method: FIG. 35. RCGD 423 Preserves BMPR1B+ Chondrocytes in Culture. Adult pig chondrocytes were cultured in the presence of various cytokines or RCGD 423 and the number of cells expressing BMPR1B were quantitated using flow cytometry. Know mitogens for cartilage, including PDGF-BB and FGF2, promoted dramatic loss of BMPR1B^+ cells. In contrast, RCGD 423 and LIF acted to maintain cells with the BMPR1B+ phenotype.
BMPR1B+LIFR+ human adult articular chondrocytes were sorted using FACS and deposited in 96-well culture plates at density 10,000 cells per well in DMEM/F12 culture medium (Invitrogen) supplemented with 1% FBS. Growth factors or RCGD 423 were added at the time of plating. After 1, 3 and 7 days cultures were re-analyzed with FACS using an antibody against BMPR1B.

[2] = system: human adult articular chondrocytes; experiment: Cellular metabolism (Seahorse ECAR and OCR), human adult articular chondrocytes; format: cell-based
Method: The mitochondrial assay cellular oxygen consumption and mitochondrial function was carried out to measure basal respiration using XF24 instrument (Seahorse Biosciences) according to manufacturer instructions. Tested cells (100,000 cells per well) we plated into 24-well test plates 48 hours prior to experimentation. Oxygen consumption rates and extracellular acidification rates were measured every 10 minutes for up to 60 minutes (Rate 1-6).

[3] = system: chondrocyte cultures; experiment: Toxicity in chondrocyte cultures; format: cell-based
Method: (§1) In a clinical setting, treatment with exogenous growth factors would present a difficult and expensive strategy. To address this, our group designed a high throughput screen to identify small molecule modulators of chondrogenic differentiation based on the prevention of the hypertrophy-associated marker collagen X (COLX). […] Importantly, the stimulatory effect of CRMs on p-STAT3 and c-MYC was reversible; protein levels of both p-STAT-3 and c-MYC decreased 48 hours after CRM-398 or -423 withdrawal (data not shown). Identification of such compounds can not only allow us to control differentiation of chondrocytes, but also manipulate the expression of STAT3 and c-MYC to achieve rejuvenation of adult chondrocytes. CRM-398 and -423 can be tested in parallel with LIF and their effects on adult articular chondrocyte activation can be assessed as described herein.

[4] = system: p-STAT3/c-MYC; experiment: Secondary screening for effects on p-STAT3/c-MYC protein levels; format: cell-based; conditions: secondary screening of 75 compounds
Method: as §1
A strategy for screening for molecules with anti-differentiation effects includes observation of primary limb mesenchyme from mCherry-COL10A1 mice. The screening strategy identifies molecules with STAT3 and c-Myc modulatory activity. FIG. 14 depicts exemplary results for a screening conducted on 170,000 compounds, resulting in 469 hits. FIG. 15 depicts percentage positive z-scores for the 469 compounds identified. FIG. 16 depicts a further screening analysis of the previously identified 469 hit compounds, resulting in 75 refined hits. […]

[5] = system: pig articular cartilage biopsy punches with defects; experiment: Repair of defects in adult pig articular cartilage biopsy punches in vitro; format: cell-based; conditions: Matrigel with microspheres, 5 weeks of culture
Method: (§2) FIGS. 31A-31D. […] (FIG. 31A) Experiments were conducted to test the tissue reparative function of compounds disclosed herein. FIG. 31A depicts histograms of amounts of glycosaminoglycans (GAGs) and collagen 2 observed under control conditions and after administration of RCGD 423. (FIG. 31B) The duration of the effects elicited by RCGD 423 was determined by applying the drug for 24 hours and then washing it out. Protein levels of pSTAT3 and MYC were determined at the indicated time points after wash out; histone H3 was used as a loading control. (FIG. 31C) Protein levels of MYC and pSTAT3 in adult pig articular chondrocytes were used to determine the time frame in which release of RCGD 423 from PLGA microspheres reaches efficacious levels. Supernatant from drug-loaded PLGA microspheres was harvested at the indicated intervals and applied to pig chondrocytes. Histone H3 was used as a loading control. (FIG. 31D) Repair in a tissue context was assessed by removing small explants from a biopsy punch of adult pig articular cartilage. Matrigel with or without RCGD 423-loaded microspheres was applied to the defects. Safranin O staining was performed on sections of explants following 5 weeks of culture; border of defect and intact tissue is shown.
(§3) We also tested whether RCGD 423 could initiate healing of small defects generated on the surface of intact articular cartilage. […]

[6] = system: pSTAT3 and MYC; experiment: Duration of pSTAT3/MYC induction after wash out or release from PLGA microspheres; format: cell-based, pig; conditions: drug applied 24 hours, then washed out
Method: as §2, §3

[7] = system: human fetal chondrocytes; experiment: Chondrocyte terminal differentiation (COLX expression, alkaline phosphatase) in human fetal chondrocytes; format: cell-based
Source text: From a therapeutic and regulatory standpoint, small molecules represent a highly attractive modality for manipulating cell biology. To this end, we conducted a high throughput screen to discover small molecules that regulate chondrocyte differentiation. As a readout for the screen, we chose mice carrying a transgenic mCherry reporter (Maye et al., 2011) for expression of Col10a1 (COL10). COL10 expression, along with alkaline phosphatase (AP) levels, increases during later stages of chondrocyte differentiation, concomitant with withdrawal from the cell cycle. […] To conduct the screen, total limb cells were isolated from Col10a1-mCherry transgenic embryos and cultured in the presence of BMP-4, a driver of chondrocyte hypertrophy (Wu et al., 2013); 170,000 compounds were assayed for their ability to decrease the mCherry signal in live cells under these conditions (FIG. 27A). Out of this first dataset, 469 molecules were selected for confirmatory screening. This number was further reduced to 75 verified compounds that blocked increases in mCherry signal (FIG. 27B). Additional vetting led to the selection of Regulator of Cartilage Growth and Differentiation (RCGD) 423 as the primary compound for continued characterization. The ability of RCGD 423 to inhibit COL10 expression in human cells was confirmed, and AP activity was employed as a supplemental readout of chondrocyte differentiation.
Cells were fixed with 3.7% formaldehyde and stained for alkaline phosphatase activity with SigmaFast 5-bromo-4-chloro-3-indolyl phosphate/4-nitro blue tetrazolium (BCIP/NBT) (Sigma Aldrich, St. Louis, Mo.) according to the manufacturer's protocol.

[8] = system: pSTAT3 and MYC; experiment: pSTAT3 and MYC in other cells/tissues; format: cell-based; conditions: embryonic stem cells and the heart; unpublished preliminary data
Source text: Based on the functional properties elicited by RCGD 423, we propose that it (or compounds functionally similar to it) may represent core components of treatment regimens for articular cartilage injury.

## Brc1ccc(Nc2nc(-c3ccccc3)cs2)cc1 [RCGD 423, N-(4-Bromophenyl)-4-phenyl-1,3-thiazol-2-amine]
[1]
  BMPR1B+ chondrocytes in culture: helped maintain
[2]
  cellular respiration: increased
  levels of glycolysis: unchanged
[3]
  toxicity in chondrocyte cultures: no toxicity
[4]
  effects on p-STAT3/c-MYC protein levels: most prominent effects
[5]
  repair / remodeling of cartilage defects: promotes cartilage repair
[6]
  time after drug removal at which increases in pSTAT3 and MYC are observed: up to 7 days
[7]
  COL10 expression in human cells: inhibit
[7]; fetal cartilage treated with BMP-4
  alkaline phosphatase (AP) levels: significantly reduced
[7]; human fetal chondrocytes, 1 μM
  terminal differentiation (COLX expression): significant inhibition
[8]
  pSTAT3 and MYC proteins in other cells/tissues: promotes increases
